Laboratory results reported in PubChem BioAssay (NCI).
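The compound was tested at five concentrations on cells cultured in 96-well plates, with a 48-hour exposure period. TGI marks complete inhibition of growth.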

Tests used:
Assay in all cases: inhibition of tumour cell growth, NCI panel, 48 h
OVCAR-8 ovarian = test system: OVCAR-8 ovarian
M14 melanoma = test system: M14 melanoma
UACC-257 melanoma = test system: UACC-257 melanoma
HCC-2998 colon = test system: HCC-2998 colon
PC-3 prostate = test system: PC-3 prostate
U251 CNS = test system: U251 CNS
HOP-62 NSCLC = test system: HOP-62 NSCLC
CCRF-CEM leukemia = test system: CCRF-CEM leukemia
NCI/ADR-RES ovarian = test system: NCI/ADR-RES ovarian
HCT-15 colon = test system: HCT-15 colon
A498 renal = test system: A498 renal
SR leukemia = test system: SR leukemia
786-0 renal = test system: 786-0 renal
T-47D breast = test system: T-47D breast
OVCAR-4 ovarian = test system: OVCAR-4 ovarian

| SMILES | TGI (OVCAR-8 ovarian) [µM] | TGI (M14 melanoma) [µM] | TGI (UACC-257 melanoma) [µM] | TGI (HCC-2998 colon) [µM] | TGI (PC-3 prostate) [µM] | TGI (U251 CNS) [µM] | TGI (HOP-62 NSCLC) [µM] | TGI (CCRF-CEM leukemia) [µM] | TGI (NCI/ADR-RES ovarian) [µM] | TGI (HCT-15 colon) [µM] | TGI (A498 renal) [µM] | TGI (SR leukemia) [µM] | TGI (786-0 renal) [µM] | TGI (T-47D breast) [µM] | TGI (OVCAR-4 ovarian) [µM] |
| --- | --- | --- | --- | --- | --- | --- | --- | --- | --- | --- | --- | --- | --- | --- | --- |
| c1csc(-c2ccc(-c3ccsc3)s2)c1 | > 100 | > 100 | > 100 | > 100 | > 100 | > 100 | > 100 | > 100 | > 100 | > 100 | > 100 | > 100 | > 100 | > 100 | > 100 |
| O=[N+]([O-])c1ccc(/C=N/n2c(CCc3n[nH]c(=S)n3/N=C/c3ccc([N+](=O)[O-])o3)n[nH]c2=S)o1 | > 100 | 36.1 | 83.8 | 33 | > 100 | 50 | 69.8 | 67.7 | 88.7 | 32.7 | > 100 | 80.7 | 31.9 | 62.8 | 36.7 |
| CN(C)C=NCc1ccc2c(c1)OCO2 | > 100 | > 100 | > 100 | > 100 | > 100 | > 100 | > 100 | > 100 | > 100 | > 100 | > 100 | > 100 | > 100 | > 100 | > 100 |
| [O-]/N=N\c1on[n+](CCc2ccccc2)c1Cc1c(/N=N/[O-])on[n+]1CCc1ccccc1 | 46.4 | > 100 | > 100 | > 100 | > 100 | 52.7 | 48.3 | > 100 | > 100 | > 100 | > 100 | > 100 | 47.5 | > 100 | 36.7 |
| CCNC(=S)Nc1c(C#N)c2n(c1C(=O)OCC)CCCCC2 | > 100 | > 100 | > 100 | > 100 | > 100 | > 100 | > 100 | > 100 | > 100 | > 100 | > 100 | > 100 | > 100 | > 100 | > 100 |
| COC1=CCC2=C(CCN(C(=O)C3CC3)C2Cc2ccc(OC)c(O)c2)C1 (stereo not given) | > 100 | > 100 | > 100 | > 100 | > 100 | > 100 | > 100 | > 100 | 55.4 | 59.6 | > 100 | 82.6 | > 100 | 70.9 | > 100 |
| COc1ccc(/C=N/NS(=O)(=O)c2ccc(/C=C3\NC(=O)N(C)C3=O)cc2)cc1 | > 100 | > 100 | > 100 | > 100 | > 100 | > 100 | > 100 | > 100 | > 100 | > 100 | > 100 | > 100 | > 100 | > 100 | > 100 |
| CC(C)(C)OC(=O)N(CCCCNC(=O)c1ccccc1)CCCNC(=O)c1ccccc1 | > 100 | > 100 | > 100 | > 100 | > 100 | > 100 | > 100 | > 100 | > 100 | > 100 | > 100 | > 100 | > 100 | > 100 | > 100 |
| CC(C)CNC(=O)c1c(NC(=O)c2ccccc2)sc2[nH]c(=O)n(-c3ccccc3)c(=O)c12 | > 100 | > 100 | > 100 | > 100 | > 100 | > 100 | 49.1 | > 89.6 | > 100 | > 100 | > 71.2 | > 90.7 | 53.6 | > 100 | > 100 |
| CC(=O)OCC1OC(N2C(=O)CC(N)=Nc3ccccc32)C(OC(C)=O)C(OC(C)=O)C1OC(C)=O (stereo not given) | > 100 | > 100 | > 100 | > 100 | > 100 | > 100 | > 100 | > 100 | > 100 | > 100 | > 100 | > 100 | > 100 | 82.2 | > 100 |
| CC(=O)[C@H]1[C@@H](OCc2ccccc2)O[N+]([O-])=C(C)[C@@H]1c1ccccc1 | > 100 | > 100 | > 100 | > 100 | > 100 | > 100 | > 100 | 44.1 | > 100 | 75 | > 100 | 42 | 31.4 | 58.1 | > 100 |
| Clc1cc2nnn(C3CCCCO3)c2cc1Cl (stereo not given) | > 100 | > 100 | > 100 | > 100 | > 100 | > 100 | > 100 | > 100 | > 100 | > 100 | > 100 | > 100 | > 100 | > 100 | > 100 |
